We go through 15 compounds from paper PMC7181245, “Antiestrogenic Activity and Possible Mode of Action of Certain New Nonsteroidal Coumarin-4-acetamides” (Molecules, 2020).

Like-named read-outs stand apart in the source and are kept apart here.

In data set [1] the test system is MCF-7 cell line (ER+ breast cancer cell line). The data set can be described thus: MTT cytotoxicity assay, MCF-7 cell line. The settings on record: for IC50: Homo sapiens, MCF7, read-out: IC50 (μM) ± S.E.M MCF-7 (cytotoxicity). How it is done: (§1) The cytotoxic activity of the synthesized compounds IIIa–h was evaluated in vitro against the human breast adenocarcinoma MCF7 (ER^+ breast cancer cell line) and the MDA-MB-231 (triple-negative breast cancer cell line, TNBC), using camptothecin as a pyranone-bearing reference standard.
(§2) The cytotoxicity of compounds Ia,b, IIa,b, and IIIa–h against the MCF-7 cell line (ER+ breast cancer cell line) and MDA-MB-231 (triple-negative breast cancer cell line, TNBC) was determined using camptothecin as a pyranone-bearing reference standard.

Data set [2] concerns MDA-MB-231 (triple-negative breast cancer cell line, TNBC). The data set can be described thus: MTT cytotoxicity assay, MDA-MB-231 cell line. How it is done:
as §1, §2
In general terms: Formazan colour is commonly taken as a measure of viable cells.

In data set [3] the test system is estrogen-dependent human breast cancer MCF-7 cell proliferation induced by 17-β-estradiol. As to the kind of experiment: In vitro antiestrogenic activity: MCF-7 cell proliferation assay (MTT) in the presence of 17-β-estradiol. Type of data set: cell-based. The settings on record: inhibition of MCF-7 cell proliferation induced by 17-β-estradiol, read-out: IC50 (μM) ± S.E.M. MCF-7 (in vitro antiestrogenic activity). How it is done: The in vitro antiestrogenic activity of the selected target compounds IIIa,b, IIId, and IIIf,g was studied through an estrogen-dependent human breast cancer MCF-7 cell proliferation assay in the presence of 17-β-estradiol. The ability of the tested compounds to inhibit cell proliferation induced by 17-β-estradiol was determined (Table 3 and Figure 4).
The antiestrogenic activity of the test compounds was examined by performing a 3-(4,5-dimethylthiazol-2-yl)-2,5-diphenyl tetrazolium bromide (MTT) assay of the MCF-7 cell line. In this experiment, MCF-7 cells were treated with 17β-estradiol (+ve cell proliferation compound). The effect of various concentrations of the tested compounds on cell proliferation in the presence of 17β-estradiol was measured.

In data set [4] the target is T1, aromatase (Homo sapiens, UniProt P11511).
T1 sequence (P11511 1-503): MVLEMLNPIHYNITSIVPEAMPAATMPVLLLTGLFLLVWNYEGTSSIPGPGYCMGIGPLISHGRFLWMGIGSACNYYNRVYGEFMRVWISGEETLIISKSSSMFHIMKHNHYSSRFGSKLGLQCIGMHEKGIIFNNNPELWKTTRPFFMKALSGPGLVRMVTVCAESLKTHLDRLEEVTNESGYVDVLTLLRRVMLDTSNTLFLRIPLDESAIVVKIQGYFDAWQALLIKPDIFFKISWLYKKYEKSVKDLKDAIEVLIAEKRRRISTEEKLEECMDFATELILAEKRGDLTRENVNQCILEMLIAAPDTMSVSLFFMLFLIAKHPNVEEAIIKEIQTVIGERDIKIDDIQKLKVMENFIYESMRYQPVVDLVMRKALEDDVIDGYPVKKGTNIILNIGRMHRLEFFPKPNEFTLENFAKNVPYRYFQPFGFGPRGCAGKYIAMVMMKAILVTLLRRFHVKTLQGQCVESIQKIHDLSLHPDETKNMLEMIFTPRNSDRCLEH
As to the kind of experiment: In vitro aromatase inhibition (sandwich enzyme immunoassay). The note with it: for IC50: IC50 (μM) ± S.E.M. (aromatase inhibition activity).
From the text: Sandwich enzyme immunoassay was adopted for aromatase inhibition assessment [38].

In data set [5] the test system is MCF-7. Also on record: method as in PMID 9391160, PMID 15177442. The note with it: cited from earlier work.
[6] abbreviates: Homo sapiens, MDA-MB-231, read-out: IC50 (μM) ± S.E.M MDA-MB-231 (cytotoxicity), MTT assay, MDA-MB-231 cells.
[7] abbreviates: ratio of IC50 values vs camptothecin.

The term IC50 denotes the concentration that inhibits the measured activity by half. In the case of `CC[C@@]1(O)C(=O)OCc2c1cc1n(c2=O)Cc2cc3ccccc3nc2-1` [Camptothecin, reference compound], the IC50 is 4.41 ± 0.28 µM in data set [1] and 19.2 ± 1.14 µM in data set [2] (setting [6]).

What is called melting point is the temperature of the solid-liquid transition. As to `COc1ccc2oc(=O)cc(CC(=O)N3CCCCC3)c2c1` [IIIa, 6-Methoxy-4-(2-oxo-2-(piperidin-1-yl)ethyl)-2H-chromen-2-one], the melting point lay in the range of 167 to 168 °C. In addition, in data set [3] (Homo sapiens, MCF7), the IC50 is 62 ± 4.02 µM. In data set [4], this compound registered an IC50 of 22.5 ± 3.4 µM. In data set [1], the IC50 was 1.82 ± 0.03 µM. Further, the IC50 in data set [2] (setting [6]) was 38.2 ± 1.52 µM.

Turning to `COc1ccc2c(CC(=O)N3CCCCC3)cc(=O)oc2c1` [IIIb, 7-Methoxy-4-(2-oxo-2-(piperidin-1-yl)ethyl)-2H-chromen-2-one], the melting point fell in the range of 135 to 136 °C. The 50% inhibitory concentration (IC50) in data set [3] (Homo sapiens, MCF7) was found to be 29.5 ± 3.25 µM. Besides, the IC50 in data set [4] amounted to 89.1 ± 6.2 µM. Further, the IC50 in data set [1] worked out at 0.32 ± 0.04 µM. For the same compound, the “potency relative to the reference standard camptothecin, MCF-7” value in data set [1] (setting [7]) is reported as “about 14 fold”. The IC50 in data set [2] (setting [6]) stood at 12.9 ± 1.17 µM.

`COc1ccc2oc(=O)cc(CC(=O)Nc3ccccc3)c2c1` [IIIc, 2-(6-Methoxy-2-oxo-2H-chromen-4-yl)-N-phenylacetamide]: the melting point was 219 to 220 °C. The compound further displayed a half-maximal inhibitory concentration (IC50) in data set [4] of 1100 ± 52.4 µM. In addition, the concentration for half-maximal inhibition (IC50) in data set [1] was 10.9 ± 0.99 µM. For the same compound, the IC50 in data set [2] (setting [6]) turned out to be 4.6 ± 0.32 µM.

For the compound `COc1ccc2oc(=O)cc(CC(=O)Nc3ccc(Br)cc3)c2c1` [IIId, N-(4-Bromophenyl)-2-(6-methoxy-2-oxo-2H-chromen-4-yl)acetamide], the melting point lay in the range of 202 to 203 °C. Also, in data set [3] (Homo sapiens, MCF7), the IC50 stood at 214 ± 12.1 µM. The same compound displayed an IC50 in data set [4] of 69.9 ± 3.91 µM. The IC50 in data set [1] was found to be 2.8 ± 0.04 µM. Besides, the IC50 in data set [2] (setting [6]) was 22.8 ± 1.54 µM.

The compound `COc1ccc2oc(=O)cc(CC(=O)Nc3ccc(OC)c(O)c3)c2c1` [IIIe, N-(3-Hydroxy-4-methoxyphenyl)-2-(6-methoxy-2-oxo-2H-chromen-4-yl)acetamide] showed a melting point of 173 to 174 °C. Further, in data set [4], the “aromatase inhibition activity (in words)” value is “moderate inhibitory activity” and it took 17.4 µM to reach half-maximal inhibition (IC50). Besides, in data set [1], the IC50 turned out to be 15.5 ± 1.24 µM. Further, in data set [2] (setting [6]), the IC50 is 2.1 µM. This compound showed an IC50 in data set [2] (human) of 2.14 ± 0.06 µM.

The compound `COc1ccc2c(CC(=O)Nc3ccccc3)cc(=O)oc2c1` [IIIf, 2-(7-Methoxy-2-oxo-2H-chromen-4-yl)-N-phenylacetamide] yielded a melting point of 217 to 218 °C. The IC50 in data set [3] (Homo sapiens, MCF7) was determined as 99.6 ± 6.39 µM. The compound further came in with an IC50 in data set [4] of 332 ± 18.2 µM. Also, the IC50 in data set [1] came to 5.69 ± 0.08 µM. Moreover, the half-inhibitory concentration (IC50) in data set [2] (setting [6]) amounted to 6.9 µM. Also, the IC50 in data set [2] (human) turned out to be 6.94 ± 0.41 µM.

`COc1ccc2c(CC(=O)Nc3ccc(Br)cc3)cc(=O)oc2c1` [IIIg, N-(4-Bromophenyl)-2-(7-methoxy-2-oxo-2H-chromen-4-yl)acetamide]: the melting point was in the range of 212 to 213 °C. In addition, the IC50 in data set [3] (Homo sapiens, MCF7) was 64.4 ± 4.12 µM. This compound yielded an IC50 in data set [4] of 27.1 ± 1.38 µM. Besides, the IC50 in data set [1] stood at 0.72 ± 0.02 µM. Also, the IC50 in data set [2] (setting [6]) worked out at 90.8 ± 3.84 µM.

For the compound `COc1ccc2c(CC(=O)Nc3ccc(OC)c(O)c3)cc(=O)oc2c1` [IIIh, N-(3-Hydroxy-4-methoxyphenyl)-2-(7-methoxy-2-oxo-2H-chromen-4-yl)acetamide], the melting point was 188 to 189 °C. Also, the half-maximal inhibitory concentration (IC50) in data set [1] is 5100 ± 241 µM. Also, in data set [2] (setting [6]), the IC50 was 14.1 ± 0.61 µM.

With `COc1ccc2oc(=O)cc(CC(=O)O)c2c1` [IIa, (6-Methoxy-2-oxo-2H-chromen-4-yl)acetic acid], the melting point was in the range of 178 to 179 °C. In addition, 32.2 ± 2.39 µM corresponded to half-maximal inhibition in data set [4] (IC50). Further, the IC50 in data set [1] came out at 1 ± 0.03 µM. Besides, in data set [2] (setting [6]), the IC50 was 80.2 ± 4.23 µM.

In the case of `COc1ccc2c(CC(=O)O)cc(=O)oc2c1` [IIb, (7-methoxy-2-oxo-2H-chromen-4-yl)acetic acid], the IC50 in data set [1] was determined as 8.08 ± 0.25 µM; in data set [2] (setting [6]), 216 ± 13.2 µM.

For `COC(=O)Cc1cc(=O)oc2ccc(OC)cc12` [Ia, Methyl (6-methoxy-2-oxo-2H-chromen-4-yl)acetate], the melting point was 153 to 154 °C. Further, in data set [1], the IC50 came out at 13.9 ± 1.15 µM. In addition, in data set [2] (setting [6]), the IC50 turned out to be 47.5 ± 2.51 µM.

On to `COC(=O)Cc1cc(=O)oc2cc(OC)ccc12` [Ib, Methyl (7-methoxy-2-oxo-2H-chromen-4-yl)acetate], for which the IC50 turned out to be 14.5 ± 1.32 µM in data set [4], 1.44 ± 0.02 µM in data set [1] and 1 ± 0.04 µM in data set [2] (setting [6]). Also, in data set [2] (setting [7]), the “potency relative to the reference standard camptothecin, MDA-MB-231” value is “about 19 times”.

With `CC(C)COC(=O)c1ccccc1C(=O)O` [Monoisobutyl phthalate (MIBP), Monoisobutyl phthalate, reference compound], the IC50 in data set [3] amounted to 46.4 ± 3.14 µM.

Regarding `O=c1oc2cc(O)ccc2c(Cc2ccc(OCCN3CCCCC3)cc2)c1-c1ccccc1` [SP500263], the “agonist activity in the MCF-7 proliferation assay” value in data set [5] is recorded as “undesirable agonist activity”.
